Converted amounts (≈) assume the structure as drawn. Read-outs that look alike come from different tables or passages of the source. *1 amine or outer side, *2 acyl side, *3 side chain or, on linkers, in order; H or OH if unused. Where a SMILES comes first, the peptide text is derived from it. Bridges are numbered along the chain shown (N, C = ends). [ ]: non-standard residue; d: D form. ξ: configuration not given here. X2 = CCCCCCCCCCCC(CC(=O)[*:1])O[*:2]; ξAsp(3ξ-OH) = NC(C(=O)O)C(O)C(=O)O; X1 = O=C(C1C(O)CCN1[*:1])[*:2]
Key:
[1] = tested on: Streptococcus pneumoniae IID-Type-I; assay: MIC, serial two-fold dilution method (aerobic); format: cell-based; details: for MIC: read-out: minimum inhibitory concentration (MIC)
[2] = tested on: Haemophilus influenzae A22481; assay: MIC, serial two-fold dilution method (aerobic); format: cell-based
[3] = tested on: Streptococcus pyogenes A9604; assay: MIC, serial two-fold dilution method (aerobic); format: cell-based
[4] = tested on: Streptococcus pneumoniae A15069; assay: MIC, serial two-fold dilution method (aerobic); format: cell-based
[5] = tested on: Neisseria meningitidis A20048; assay: MIC, serial two-fold dilution method (aerobic); format: cell-based
[6] = tested on: Streptococcus pneumoniae A9585; assay: MIC, serial two-fold dilution method (aerobic); format: cell-based
[7] = tested on: Streptococcus pyogenes S-23; assay: MIC, serial two-fold dilution method (aerobic); format: cell-based
staphylococci = assay: MIC summary, staphylococci; format: cell-based; details: against staphylococci
Veillonella species = assay: MIC summary, Veillonella; format: cell-based; details: gram-negative cocci
[8] = format: in vivo, mice; details: acute toxicity
Experimental: The acute toxicity of Bu-2517 was determined by intravenous and intramuscular routes. No death occurred up to a dose of 400 mg/kg (iv) or 1600 mg/kg (im).

S. pyogenes A20201 = assay: Experimental infection of mice, PD50; format: in vivo; details: observed 5 days
S. aureus BX-1633 = format: in vivo, mice; details: Exp. Run No. C-1319, observed 5 days
[9] = tested on: gram-positive rods and cocci (Clostridium, Peptostreptococcus, Propionibacterium acnes); format: cell-based; details: various species of Clostridium and Peptostreptococcus and strains of Propionibacterium acnes
anaerobic bacteria = assay: MIC summary, anaerobic bacteria; format: cell-based
[10] = tested on: aerobic and anaerobic gram-positive pathogens; set-up: species or system mice; details: mouse
S. aureus Smith = assay: Experimental infection of mice, PD50; format: in vivo; details: observed 5 days
C. perfringens A9635 = format: in vivo, mice; details: observed 5 days
S pneumoniae A20759 = format: in vivo, mice; details: Exp. Run No. C-1176, observed 5 days
S. aureus 209P = assay: Antibiotic sensitivity, paper disc-agar diffusion method; format: cell-based; set-up: key: S (sensitive); R (resistant); I (intermediate); details: nutrient agar, 2 day's incubation at 28° C., Difco discs, amount/disc per antibiotic
Strain G393-B445 = assay: as above; format: cell-based, Empedobacter sp.; set-up: key: S (sensitive); R (resistant); I (intermediate); details: nutrient agar, 2 day's incubation at 28° C., Difco discs, amount/disc per antibiotic
[11] = Streptococcus pneumoniae IID-Type-I, GC medium, inoculum 10^6 CFU/ml
[12] = Haemophilus influenzae A22481, GC medium, inoculum 10^6 CFU/ml
[13] = Exp. Run No. C-1313, 1.3 × 10^2 cell/mouse, 60 × LD50, im just before challenge
[14] = Streptococcus pyogenes A9604, GC medium, inoculum 10^6 CFU/ml
[15] = Streptococcus pneumoniae A15069, GC medium, inoculum 10^6 CFU/ml
[16] = Neisseria meningitidis A20048, GC medium, inoculum 10^6 CFU/ml
[17] = Exp. Run No. C-1247, 1.3 × 10^6 cell/mouse, 350 × LD50, im just before challenge
[18] = Exp. Run No. C-1312, 1.3 × 10^6 cell/mouse, 200 × LD50, im just before challenge
[19] = Exp. Run No. C-1318, 2.5 × 10^7 cell/mouse, 11 × LD50, im just before challenge
[20] = Streptococcus pneumoniae A9585, GC medium, inoculum 10^6 CFU/ml
[21] = Streptococcus pyogenes S-23, GC medium, inoculum 10^6 CFU/ml

CN[C@H](CC(C)C)C(=O)N[C@H]1C(=O)N[C@@H](CC(N)=O)C(=O)N[C@H]2C(=O)N[C@H]3C(=O)N[C@H](C(=O)N[C@H](C(=O)O)c4cc(O)cc(O)c4-c4cc3ccc4O)[C@H](O)c3ccc(c(Cl)c3)Oc3cc2cc(c3O[C@@H]2O[C@H](CO)[C@@H](O)[C@H](O)[C@H]2O[C@H]2C[C@](C)(N)[C@H](O)[C@H](C)O2)Oc2ccc(cc2Cl)[C@H]1O [Vancomycin]
MIC ([1]; Streptococcus pneumoniae): 0.8 µg/mL (≈ 0.552 µM)
MIC ([2]; Haemophilus influenzae, A22481, read-out: minimum inhibitory concentration (MIC)): > 100 µg/mL
MIC ([3]; Streptococcus pyogenes, A9604, read-out: minimum inhibitory concentration (MIC)): 0.4 µg/mL (≈ 0.276 µM)
MIC ([4]; Streptococcus pneumoniae, A15069, read-out: minimum inhibitory concentration (MIC)): 0.4 µg/mL (≈ 0.276 µM)
MIC ([5]; Neisseria meningitidis, A20048, read-out: minimum inhibitory concentration (MIC)): > 100 µg/mL
MIC ([6]; Streptococcus pneumoniae, A9585, read-out: minimum inhibitory concentration (MIC)): 0.4 µg/mL (≈ 0.276 µM)
MIC ([7]; Streptococcus pyogenes, S23, read-out: minimum inhibitory concentration (MIC)): 0.8 µg/mL (≈ 0.552 µM)

CCCCCCCCCCCC1CC(=O)N2CCCC2C(=O)NC(CO)C(=O)N2CCCC2C(=O)NC(CCCNC(=N)N)C(=O)NC(C(O)C(=O)O)C(=O)NC(CO)C(=O)N2CCC(O)C2C(=O)NC(C(O)C(=O)O)C(=O)O1 (stereo not drawn) [Bu-2517] (PSPR[ξAsp(3ξ-OH)]S[X1][ξAsp(3ξ-OH)]; linker N-C via X2; configuration not given here)
fold more active than amphomycin (staphylococci): 2-4 fold
inhibition of two strains of Veillonella species (Veillonella species): inhibited at low concentration
dose up to which no death occurred ([8]; im): 1600 mg/kg
intravenous dose at which mice died ([8]; intravenous): 800 mg/kg
dose up to which no death occurred ([8]; iv): 400 mg/kg
intravenous LD50 ([8]; mice, calculated): 560 mg/kg
pH range in which aqueous solution forms a precipitate: 2.4-4.2
minimum inhibitory concentration (MIC) [1, 11]: 0.8 µg/mL (≈ 0.71 µM)
minimum inhibitory concentration (MIC) [2, 12]: > 100 µg/mL
PD50 (mg/kg, im) (S. pyogenes A20201; Exp. Run No. C-1174, 1.3 × 10^2 cell/mouse, 30 × LD50, im just before challenge): 1.0 mg/kg
PD50 (mg/kg, im) (S. pyogenes A20201; [13]): 1.5 mg/kg
minimum inhibitory concentration (MIC) [3, 14]: 1.6 µg/mL (≈ 1.42 µM)
minimum inhibitory concentration (MIC) [4, 15]: 1.6 µg/mL (≈ 1.42 µM)
PD50 (mg/kg, im) (S. aureus BX-1633): 3.6 mg/kg
inhibition of anaerobic gram-positive rods and cocci tested [9]: inhibited all
antianaerobic activity, times more potent than amphomycin (anaerobic bacteria): 2-16 times
minimum inhibitory concentration (MIC) [5, 16]: > 100 µg/mL
in vivo activity relative to the potency of amphomycin [10]: equal to up to three times
PD50 (mg/kg, im) (S. aureus Smith; [17]): 3.3 mg/kg
PD50 (mg/kg, im) (S. aureus Smith; [18]): 3.3 mg/kg
PD50 (mg/kg, im) (C. perfringens A9635; Exp. Run No. C-1175, 2.5 × 10^7 cell/mouse, 18 × LD50, im just before challenge): 5.5 mg/kg
PD50 (mg/kg, im) (C. perfringens A9635; [19]): 6.8 mg/kg
minimum inhibitory concentration (MIC) [6, 20]: 1.6 µg/mL (≈ 1.42 µM)
minimum inhibitory concentration (MIC) [7, 21]: 1.6 µg/mL (≈ 1.42 µM)
PD50 (mg/kg, im) (S pneumoniae A20759): 1.9 mg/kg

O=C(N[C@H](CO)[C@H](O)c1ccc([N+](=O)[O-])cc1)C(Cl)Cl [Chloramphenicol]
Sensitivity S. aureus 209P (S. aureus 209P): S
Sensitivity Strain G393-B445 (Strain G393-B445): S

CC[C@H]1OC(=O)[C@H](C)[C@@H](O[C@H]2C[C@@](C)(OC)[C@@H](O)[C@H](C)O2)[C@H](C)[C@@H](O[C@@H]2O[C@H](C)C[C@H](N(C)C)[C@H]2O)[C@](C)(O)C[C@@H](C)C(=O)[C@H](C)[C@@H](O)[C@]1(C)O [Erythromycin]
Sensitivity S. aureus 209P (S. aureus 209P): S
Sensitivity Strain G393-B445 (Strain G393-B445): S

CC1(C)S[C@@H]2[C@H](NC(=O)[C@H](N)c3ccccc3)C(=O)N2[C@H]1C(=O)O [Ampicillin]
Sensitivity S. aureus 209P (S. aureus 209P): S
MIC [1, 11]: 0.025 µg/mL (≈ 0.0715 µM)
MIC ([2]; Haemophilus influenzae A22481, GC medium, inoculum 10^6 CFU/ml, read-out: minimum inhibitory concentration (MIC)): 50 µg/mL (≈ 143 µM)
MIC ([3]; Streptococcus pyogenes A9604, GC medium, inoculum 10^6 CFU/ml, read-out: minimum inhibitory concentration (MIC)): 0.013 µg/mL (≈ 0.0372 µM)
MIC ([4]; Streptococcus pneumoniae A15069, GC medium, inoculum 10^6 CFU/ml, read-out: minimum inhibitory concentration (MIC)): 0.025 µg/mL (≈ 0.0715 µM)
Sensitivity Strain G393-B445 (Strain G393-B445): S
MIC ([5]; Neisseria meningitidis A20048, GC medium, inoculum 10^6 CFU/ml, read-out: minimum inhibitory concentration (MIC)): 0.4 µg/mL (≈ 1.14 µM)
MIC ([6]; Streptococcus pneumoniae A9585, GC medium, inoculum 10^6 CFU/ml, read-out: minimum inhibitory concentration (MIC)): 0.025 µg/mL (≈ 0.0715 µM)
MIC ([7]; S23, Streptococcus pyogenes S-23, GC medium, inoculum 10^6 CFU/ml, read-out: minimum inhibitory concentration (MIC)): 0.013 µg/mL (≈ 0.0372 µM)

Amphomycin
minimum inhibitory concentration (MIC) [1, 11]: 25 µg/mL
minimum inhibitory concentration (MIC) [2, 12]: > 100 µg/mL
PD50 (mg/kg, im) (S. pyogenes A20201; [13]): 3.5 mg/kg
minimum inhibitory concentration (MIC) [3, 14]: 12.5 µg/mL
minimum inhibitory concentration (MIC) [4, 15]: 25 µg/mL
PD50 (mg/kg, im) (S. aureus BX-1633): 4.4 mg/kg
minimum inhibitory concentration (MIC) [5, 16]: > 100 µg/mL
PD50 (mg/kg, im) (S. aureus Smith; [17]): 9.0 mg/kg
PD50 (mg/kg, im) (S. aureus Smith; [18]): 3.3 mg/kg
PD50 (mg/kg, im) (C. perfringens A9635; [19]): 7.4 mg/kg
minimum inhibitory concentration (MIC) [6, 20]: 25 µg/mL
minimum inhibitory concentration (MIC) [7, 21]: 12.5 µg/mL

From patent US4409210A, “Antibiotic compound” (priority 1982, dated 1983)
